From patent publication US20260224563A1, “CRYSTALLINE FORMS OF 6-(3-((5-CHLORO-2-METHOXYPYRIDINE)-3-SULFONAMIDO)-2,6-DIFLUOROPHENYL)-N-METHYLIMIDAZO[1,5-A]PYRAZINE-1-CARBOXAMIDE AND METHODS FOR USING THE SAME” (HIBERCELL, INC., priority 2023, published 2026)
Where a name gives a salt, the structure may show the parent alone.

Experiments:
[1] = Pharmacokinetic study of HC-7366 via oral (PO) administration of different formulations in beagle dogs; assay type: in vivo; settings: dog, plasma, 7.5 mg/kg, PO 7.5 mpk, male beagle dogs
Procedure: 10 mL of 0.001 N HCl was used to wash the gavage catheter for each animal.

[2] = Pharmacokinetics of HC-7366 in male and female beagle dogs following IV and oral administration of HC-7366-K (plasma and urine, LC-MS/MS); assay type: in vivo, Beagle Dog; parameters: AUC(0-t)/D: unit not given here

SMILES	Tmax [1] [h]	AUC(0-t)/D ([2]; Female Beagle dog, IV 0.5 mg/kg, mean n = 3)	t1/2 ([2]; Male Beagle dogs, IV 0.5 mg/kg, HC-7366 in plasma, mean n = 3) [h]	clearance ([2]; dog, plasma, male beagle dogs, intravenous 0.5 mg/kg, read-out: Clearance (CL)) [mL/h/kg]	Vd ([2]; dog, plasma, male beagle dogs, intravenous 0.5 mg/kg, read-out: volume of distribution at steady state (Vss)) [L/kg]	CL renal ([2]; dog, urine and plasma, female Beagle dogs, intravenous 0.5 mg/kg, read-out: Renal Clearance) [mL/h/kg]	bioavailability ([1]; in a capsule, n=3) [%]
CNC(=O)c1ncn2cc(-c3c(F)ccc(NS(=O)(=O)c4cc(Cl)cnc4OC)c3F)ncc12 [HC-7366-K, 6-(3-((5-chloro-2-methoxypyridine)-3-sulfonamido)-2,6-difluorophenyl)-N-methylimidazo[1,5-a]pyrazine-1-carboxamide]	4	162284	14	6	0.107	0.0066	
CNC(=O)c1ncn2cc(-c3c(F)ccc(NS(=O)(=O)c4cc(Cl)cnc4OC)c3F)ncc12 [Potassium salt Form III, 6-(3-((5-chloro-2-methoxypyridine)-3-sulfonamido)-2,6-difluorophenyl)-N-methylimidazo[1,5-a]pyrazine-1-carboxamide]							~50
